Source: ChEMBL document CHEMBL1201862, “PubChem BioAssay data set” (2004)
Activity calls are given as the source filed them.

What was measured:
[1] = biological target: T1, Endoribonuclease toxin MazF (Escherichia coli K-12, UniProt P0AE70); assay: fluorescent RNA oligo signal without MazF, dose response, counter-screen for MazEF activator project, biochemical, fluorescence, single-stranded RNase substrate (AID 588502); type: functional
T1 sequence (P0AE70 whole entry): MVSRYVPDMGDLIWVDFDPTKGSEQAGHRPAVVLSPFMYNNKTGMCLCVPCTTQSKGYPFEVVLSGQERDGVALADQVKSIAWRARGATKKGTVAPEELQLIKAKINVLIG

[2] = biological target: T2, RNA-binding protein pos-1 (Caenorhabditis elegans, UniProt G5EF15); assay: inhibitors of POS-1/mex-3 RNA binding, dose response, biochemical, fluorescence polarization (AID 1964);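 note: purified POS-1 fused to maltose binding protein made in E. coli; potency of compounds blocking POS-1 binding to fluorescent RNA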
T2 sequence (G5EF15 whole entry): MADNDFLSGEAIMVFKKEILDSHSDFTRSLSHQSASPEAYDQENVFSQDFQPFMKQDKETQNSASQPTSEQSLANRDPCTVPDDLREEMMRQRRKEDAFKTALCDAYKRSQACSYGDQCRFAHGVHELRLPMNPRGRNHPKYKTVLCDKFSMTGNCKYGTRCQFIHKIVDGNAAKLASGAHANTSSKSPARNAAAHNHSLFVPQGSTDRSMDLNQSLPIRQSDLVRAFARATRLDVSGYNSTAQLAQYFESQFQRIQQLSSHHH

[3] = biological target: T1, Endoribonuclease toxin MazF; assay: MazF toxin RNase activators, dose response, biochemical, fluorescence, single-stranded RNA substrate, uHTS hits (AID 588481); type: functional
[4] = biological target: T3, Zinc finger protein mex-5 (Caenorhabditis elegans, UniProt Q9XUB2); assay: MEX-5/TCR-2 RNA interaction inhibitors, dose response, biochemical, C. elegans, fluorescence polarization (AID 1960)
T3 sequence (Q9XUB2 whole entry): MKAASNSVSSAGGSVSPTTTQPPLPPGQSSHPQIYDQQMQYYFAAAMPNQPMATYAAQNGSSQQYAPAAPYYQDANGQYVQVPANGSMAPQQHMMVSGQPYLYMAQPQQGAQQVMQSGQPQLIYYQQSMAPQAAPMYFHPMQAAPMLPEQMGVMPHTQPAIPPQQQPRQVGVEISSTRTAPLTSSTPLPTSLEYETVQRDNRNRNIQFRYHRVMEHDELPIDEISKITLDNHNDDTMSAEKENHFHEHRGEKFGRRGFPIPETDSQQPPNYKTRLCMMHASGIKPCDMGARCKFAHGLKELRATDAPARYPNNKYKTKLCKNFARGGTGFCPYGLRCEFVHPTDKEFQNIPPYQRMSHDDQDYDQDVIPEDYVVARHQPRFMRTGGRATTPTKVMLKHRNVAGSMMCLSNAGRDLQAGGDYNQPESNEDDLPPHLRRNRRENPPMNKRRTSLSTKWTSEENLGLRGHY

[5] = biological target: T4, Corticotropin-releasing factor receptor 2/Corticotropin-releasing factor-binding protein (Homo sapiens, UniProt P24387+Q13324); assay: activators of CRF receptor 2 with binding protein – uHTS hits, confirmation (AID 602473); type: functional; settings: read-out: EC50_Mean
T4 sequence (Q13324 whole entry): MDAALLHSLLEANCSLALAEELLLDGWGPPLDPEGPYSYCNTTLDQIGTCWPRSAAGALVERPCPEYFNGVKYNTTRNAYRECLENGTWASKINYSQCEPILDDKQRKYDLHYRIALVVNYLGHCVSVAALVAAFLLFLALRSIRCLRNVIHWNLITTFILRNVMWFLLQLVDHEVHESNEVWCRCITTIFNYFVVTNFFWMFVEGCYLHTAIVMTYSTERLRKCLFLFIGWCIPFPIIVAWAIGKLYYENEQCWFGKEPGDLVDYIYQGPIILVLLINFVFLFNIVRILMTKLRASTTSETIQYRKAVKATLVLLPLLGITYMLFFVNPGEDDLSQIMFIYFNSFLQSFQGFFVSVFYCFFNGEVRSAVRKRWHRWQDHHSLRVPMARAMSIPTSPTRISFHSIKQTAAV
T4 sequence (P24387 whole entry): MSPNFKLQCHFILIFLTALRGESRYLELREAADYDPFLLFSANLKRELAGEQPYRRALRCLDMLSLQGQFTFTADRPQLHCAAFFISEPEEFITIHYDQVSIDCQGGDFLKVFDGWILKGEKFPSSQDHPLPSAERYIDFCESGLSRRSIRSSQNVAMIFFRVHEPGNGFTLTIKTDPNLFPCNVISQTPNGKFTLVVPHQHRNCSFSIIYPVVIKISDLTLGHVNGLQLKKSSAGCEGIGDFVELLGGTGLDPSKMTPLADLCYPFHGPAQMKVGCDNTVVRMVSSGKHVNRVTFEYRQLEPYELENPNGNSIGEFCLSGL

[6] = biological target: T5, Type-1 angiotensin II receptor (Homo sapiens, UniProt P30556); assay: AT1 receptor antagonists, dose response, selectivity assay for APJ receptor antagonist project, cell-based, uHTS hits (AID 463214); type: functional;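 note: antagonist potency against angiotensin II stimulated AT1 response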
T5 sequence (P30556 whole entry): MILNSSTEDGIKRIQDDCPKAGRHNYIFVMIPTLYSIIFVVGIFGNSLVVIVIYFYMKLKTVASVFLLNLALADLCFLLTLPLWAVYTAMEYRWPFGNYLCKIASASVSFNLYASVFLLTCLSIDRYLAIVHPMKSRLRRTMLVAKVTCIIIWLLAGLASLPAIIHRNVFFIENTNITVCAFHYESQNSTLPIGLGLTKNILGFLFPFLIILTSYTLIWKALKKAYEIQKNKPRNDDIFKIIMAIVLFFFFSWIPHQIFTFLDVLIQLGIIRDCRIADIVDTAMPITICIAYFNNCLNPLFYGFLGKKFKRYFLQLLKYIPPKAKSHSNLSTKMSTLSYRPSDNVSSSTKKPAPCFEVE

Beta-galactosidase = Beta-galactosidase (Escherichia coli, UniProt Q8VNN2); assay: PubChem AID 485352; type: functional
[7] = LGR2 antagonists, dose response, cell-based, HEK293, CRE-luciferase reporter, cherry pick, set 2 (AID 743343); type: functional;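 note: transfected cells were stimulated with diluted bursicon conditioned medium after compound addition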
[8] = biological target: T6, Nuclear receptor subfamily 0 group B member 1 (Homo sapiens, UniProt P51843); assay: Luminescence-based cell-based high throughput dose response assay for inhibitors of the orphan nuclear receptor subfamily 0, group B, member 1 (DAX1; NR0B1). [Related pubchem assays (depositor defined):AID504766, AID504790]; type: functional
T6 sequence (P51843 whole entry): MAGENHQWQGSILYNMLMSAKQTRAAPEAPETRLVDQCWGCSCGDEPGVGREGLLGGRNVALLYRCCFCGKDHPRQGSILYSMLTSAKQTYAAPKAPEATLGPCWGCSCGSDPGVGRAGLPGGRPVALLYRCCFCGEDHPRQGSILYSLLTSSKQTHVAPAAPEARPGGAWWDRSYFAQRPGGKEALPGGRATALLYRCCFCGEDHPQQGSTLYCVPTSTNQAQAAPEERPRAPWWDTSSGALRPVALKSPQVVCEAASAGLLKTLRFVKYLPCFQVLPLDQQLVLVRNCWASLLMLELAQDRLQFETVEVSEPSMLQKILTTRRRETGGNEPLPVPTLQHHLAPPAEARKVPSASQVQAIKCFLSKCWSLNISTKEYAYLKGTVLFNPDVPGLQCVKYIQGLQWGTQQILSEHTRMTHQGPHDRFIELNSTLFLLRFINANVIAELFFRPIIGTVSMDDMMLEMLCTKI

[9] = MC4R antagonists, dose response, counter-screen for LGR2 antagonist project, cell-based, plate reader, cherry pick (AID 743444); type: functional;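 note: transfected HEK 293 cells stimulated with alpha-MSH peptide; potency of inhibitors of the alpha-MSH evoked signal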
[10] = A549 cell cytotoxicity, dose response, cytotoxicity control, plate reader, cherry-pick, antagonist series (AID 743412); type: functional, cell-based
HEK293 = assay: cells; type: functional, cell-based; settings: Homo sapiens
Cytochrome P450 2C9 = Cytochrome P450 2C9 (Homo sapiens, UniProt P11712)
Mu-type opioid receptor = Mu-type opioid receptor (Homo sapiens, UniProt P35372); assay: (§1) Counterscreen for agonists of heterodimerization of the mu 1 (OPRM1) and delta 1 (OPRD1) opioid receptors: Luminescence-based cell-based high throughput dose response assay to identify agonists of OPRM1 homodimerization.; type: functional
[11] = biological target: T7, Short transient receptor potential channel 4 (Mus musculus, UniProt Q9QUQ5); assay: mouse TRPC4 channel activators, dose response, cell-based, HEK293 TRPC4/mu-opioid, Fluo-4 calcium (AID 434937); type: functional
T7 sequence (Q9QUQ5 whole entry): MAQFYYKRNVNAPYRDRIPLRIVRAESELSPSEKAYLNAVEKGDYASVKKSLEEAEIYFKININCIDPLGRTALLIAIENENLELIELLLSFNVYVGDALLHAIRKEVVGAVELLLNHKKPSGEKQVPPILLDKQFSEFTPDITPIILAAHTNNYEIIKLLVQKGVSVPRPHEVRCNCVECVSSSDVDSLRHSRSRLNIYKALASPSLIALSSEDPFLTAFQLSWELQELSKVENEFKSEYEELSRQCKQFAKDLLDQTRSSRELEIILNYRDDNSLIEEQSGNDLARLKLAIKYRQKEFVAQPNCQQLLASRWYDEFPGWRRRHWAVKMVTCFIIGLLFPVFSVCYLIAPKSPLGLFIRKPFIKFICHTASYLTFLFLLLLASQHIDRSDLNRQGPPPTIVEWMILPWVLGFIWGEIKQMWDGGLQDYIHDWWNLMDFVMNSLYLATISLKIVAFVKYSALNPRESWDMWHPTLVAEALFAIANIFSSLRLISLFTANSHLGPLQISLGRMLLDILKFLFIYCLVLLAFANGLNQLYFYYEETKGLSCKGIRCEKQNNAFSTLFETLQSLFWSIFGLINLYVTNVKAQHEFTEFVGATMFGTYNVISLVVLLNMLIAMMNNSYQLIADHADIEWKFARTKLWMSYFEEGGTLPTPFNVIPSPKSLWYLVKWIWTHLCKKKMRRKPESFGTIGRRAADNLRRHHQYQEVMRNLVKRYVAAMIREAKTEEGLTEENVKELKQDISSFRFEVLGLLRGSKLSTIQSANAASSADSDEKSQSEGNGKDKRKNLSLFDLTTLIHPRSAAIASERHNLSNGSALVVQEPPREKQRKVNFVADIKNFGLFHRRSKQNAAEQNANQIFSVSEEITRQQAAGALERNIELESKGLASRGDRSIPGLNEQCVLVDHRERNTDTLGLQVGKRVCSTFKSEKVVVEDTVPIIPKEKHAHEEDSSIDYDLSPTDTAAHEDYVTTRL

[12] = biological target: T8, DNA repair protein RAD52 homolog (Homo sapiens, UniProt P43351); type: functional, biochemical
T8 sequence (P43351 whole entry): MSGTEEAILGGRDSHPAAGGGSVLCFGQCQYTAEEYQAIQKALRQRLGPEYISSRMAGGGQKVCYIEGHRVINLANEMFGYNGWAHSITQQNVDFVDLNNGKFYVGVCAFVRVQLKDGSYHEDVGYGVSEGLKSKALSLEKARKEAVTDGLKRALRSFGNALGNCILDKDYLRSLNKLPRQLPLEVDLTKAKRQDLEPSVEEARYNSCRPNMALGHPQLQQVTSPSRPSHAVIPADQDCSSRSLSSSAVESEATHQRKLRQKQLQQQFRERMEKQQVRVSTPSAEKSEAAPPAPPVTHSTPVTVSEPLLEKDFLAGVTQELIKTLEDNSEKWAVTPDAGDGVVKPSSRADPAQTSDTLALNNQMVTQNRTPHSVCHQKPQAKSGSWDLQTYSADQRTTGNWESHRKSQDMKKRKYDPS

[13] = biological target: 5-hydroxytryptamine receptor 5A (Homo sapiens, UniProt P47898); assay: Counterscreen for agonists of OPRM1-OPRD1 heterodimerization: luminescence-based cell-based high throughput dose response assay to identify agonists of 5-hydroxytryptamine (serotonin) 5A receptor (HTR5A). [Related pubchem assays (depositor defined):AID504326, AID504355, AID504692, AID504904, AID504905]; type: functional
[14] = biological target: Delta-type opioid receptor (Homo sapiens, UniProt P41143); assay: as §1, with “of OPRD1” for “of OPRM1”, “homodimerization. [Related pubchem assays (depositor defined):AID504326, AID504355, AID504692, AID504904, AID504905]” for “homodimerization.”; type: functional
[15] = A Cell Based Secondary Assay To Explore Cytotoxicity of Compounds that Sensitize Mycobacterium Tuberculosis to Beta-Lactam Antibiotics.; type: functional

Sequence of Beta-galactosidase (Q8VNN2 whole entry): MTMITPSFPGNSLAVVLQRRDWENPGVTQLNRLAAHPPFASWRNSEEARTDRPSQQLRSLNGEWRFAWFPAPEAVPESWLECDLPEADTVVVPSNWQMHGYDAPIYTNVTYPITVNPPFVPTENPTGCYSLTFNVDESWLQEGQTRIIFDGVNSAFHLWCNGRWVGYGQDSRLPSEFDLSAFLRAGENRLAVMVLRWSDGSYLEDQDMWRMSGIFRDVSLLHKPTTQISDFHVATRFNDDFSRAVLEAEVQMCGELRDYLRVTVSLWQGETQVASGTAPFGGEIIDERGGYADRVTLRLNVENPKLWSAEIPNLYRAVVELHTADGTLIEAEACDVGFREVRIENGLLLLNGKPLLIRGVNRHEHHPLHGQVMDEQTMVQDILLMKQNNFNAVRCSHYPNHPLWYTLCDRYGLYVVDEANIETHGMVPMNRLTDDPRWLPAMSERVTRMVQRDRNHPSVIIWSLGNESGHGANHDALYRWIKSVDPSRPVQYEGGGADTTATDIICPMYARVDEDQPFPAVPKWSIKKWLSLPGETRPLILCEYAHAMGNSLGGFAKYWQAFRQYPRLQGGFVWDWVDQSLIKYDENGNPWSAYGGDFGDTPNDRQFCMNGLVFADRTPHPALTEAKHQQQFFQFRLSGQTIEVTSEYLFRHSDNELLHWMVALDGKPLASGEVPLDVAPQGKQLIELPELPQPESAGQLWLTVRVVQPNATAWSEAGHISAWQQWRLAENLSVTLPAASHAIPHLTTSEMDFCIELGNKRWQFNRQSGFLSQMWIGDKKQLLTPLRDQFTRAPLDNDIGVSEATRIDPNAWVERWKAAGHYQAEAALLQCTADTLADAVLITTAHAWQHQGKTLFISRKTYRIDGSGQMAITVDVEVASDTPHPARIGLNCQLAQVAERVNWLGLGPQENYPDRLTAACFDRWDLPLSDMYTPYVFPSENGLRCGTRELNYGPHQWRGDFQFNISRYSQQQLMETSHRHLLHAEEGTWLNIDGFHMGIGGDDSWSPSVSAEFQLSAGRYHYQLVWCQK
Sequence of Mu-type opioid receptor (P35372 whole entry): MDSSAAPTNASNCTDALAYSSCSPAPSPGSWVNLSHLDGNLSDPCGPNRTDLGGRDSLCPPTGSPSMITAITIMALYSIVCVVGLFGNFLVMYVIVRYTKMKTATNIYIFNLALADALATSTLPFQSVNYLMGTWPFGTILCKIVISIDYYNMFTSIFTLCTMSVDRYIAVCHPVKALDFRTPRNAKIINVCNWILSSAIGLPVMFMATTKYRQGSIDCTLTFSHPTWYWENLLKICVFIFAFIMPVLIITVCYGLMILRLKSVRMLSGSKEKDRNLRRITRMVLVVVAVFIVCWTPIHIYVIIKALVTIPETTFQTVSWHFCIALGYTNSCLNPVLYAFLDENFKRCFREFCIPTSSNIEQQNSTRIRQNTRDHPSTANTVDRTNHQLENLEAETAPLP
Sequence of Delta-type opioid receptor (P41143 whole entry): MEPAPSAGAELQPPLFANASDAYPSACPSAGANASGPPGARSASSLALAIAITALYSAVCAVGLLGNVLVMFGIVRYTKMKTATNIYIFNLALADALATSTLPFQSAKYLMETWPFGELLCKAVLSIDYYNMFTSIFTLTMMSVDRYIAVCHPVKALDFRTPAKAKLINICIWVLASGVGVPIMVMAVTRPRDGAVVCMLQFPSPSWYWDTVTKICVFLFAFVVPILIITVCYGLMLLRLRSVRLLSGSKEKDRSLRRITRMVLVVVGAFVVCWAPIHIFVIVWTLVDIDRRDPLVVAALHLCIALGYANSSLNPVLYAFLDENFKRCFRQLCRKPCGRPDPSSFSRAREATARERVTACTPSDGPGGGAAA
Sequence of Cytochrome P450 2C9 (P11712 whole entry): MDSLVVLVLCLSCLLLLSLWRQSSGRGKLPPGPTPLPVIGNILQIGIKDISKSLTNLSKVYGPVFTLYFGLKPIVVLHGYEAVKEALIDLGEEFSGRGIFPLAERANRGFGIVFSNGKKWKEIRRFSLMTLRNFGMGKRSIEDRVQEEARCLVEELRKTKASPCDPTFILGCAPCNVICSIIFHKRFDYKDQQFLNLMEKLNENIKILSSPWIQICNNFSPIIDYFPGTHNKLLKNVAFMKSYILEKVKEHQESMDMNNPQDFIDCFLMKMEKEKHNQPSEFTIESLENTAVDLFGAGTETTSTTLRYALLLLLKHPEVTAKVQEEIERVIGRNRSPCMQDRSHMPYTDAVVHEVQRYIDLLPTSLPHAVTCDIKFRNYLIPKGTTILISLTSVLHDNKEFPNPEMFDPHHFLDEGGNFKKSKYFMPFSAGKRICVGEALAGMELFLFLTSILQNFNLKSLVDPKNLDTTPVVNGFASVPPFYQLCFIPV
Sequence of 5-hydroxytryptamine receptor 5A (P47898 whole entry): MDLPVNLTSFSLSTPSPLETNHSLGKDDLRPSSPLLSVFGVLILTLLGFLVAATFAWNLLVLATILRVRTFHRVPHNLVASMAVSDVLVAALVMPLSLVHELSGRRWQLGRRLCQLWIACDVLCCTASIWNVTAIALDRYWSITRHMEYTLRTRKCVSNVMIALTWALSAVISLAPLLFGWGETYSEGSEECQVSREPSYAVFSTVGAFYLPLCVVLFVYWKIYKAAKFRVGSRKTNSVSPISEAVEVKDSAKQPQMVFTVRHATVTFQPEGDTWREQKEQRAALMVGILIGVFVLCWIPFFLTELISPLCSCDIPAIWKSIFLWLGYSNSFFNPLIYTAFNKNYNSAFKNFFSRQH

NC(=O)c1c(NC(=O)c2ccccc2)sc2c1CCN(Cc1ccccc1)C2
EC50 [1]: > 99 µM (inactive)
EC50 [2]: > 300 µM (not active)
EC50 [3]: > 99 µM (inactive)
EC50 [4]: > 300 µM (inconclusive)
EC50 [5]: 12.6 µM (active)

COC(=O)CSc1[nH]c2ccc(Br)cc2c1[N+](=O)[O-]
IC50 [6]: > 40 µM (not active)
EC50 (Beta-galactosidase): > 40 µM (inactive)

Nc1nccc(-c2cc(-c3ccc(Cl)cc3Cl)no2)n1
AC50 [7]: 8.96 µM (active)
IC50 [8]: > 67.6 µM (inactive)
AC50 [9]: 8.35 µM (active)
AC50 [10]: > 52 µM (inactive)
IC50 (HEK293): > 67.6 µM (inactive)

O=C(COC(=O)c1cccnc1)c1ccc(Cl)c(Cl)c1
IC50 [6]: 36.8 µM (not active)
AC50 (Cytochrome P450 2C9): 7.94 µM (inconclusive)
EC50 (Beta-galactosidase): > 40 µM (inactive)

CN1CCN(c2ccc(NC(=O)c3ccc(-c4cccc([N+](=O)[O-])c4)o3)cc2)CC1
EC50 (Mu-type opioid receptor): > 30.8 µM (inactive)
EC50 [11]: 0.299 µM (active)
AC50 [12]: 10.3 µM (active)
EC50 [13]: > 92.5 µM (inactive)
EC50 [14]: 70 µM (inactive)
CC50 [15]: 29 µM (active)

Cn1c(N)c(C(=O)COC(=O)CSc2ccccc2)c(=O)n(C)c1=O
IC50 [8]: > 67.6 µM (inactive)
IC50 (HEK293): > 67.6 µM (inactive)

COc1ccc(OC)c(C(C)NC(=O)c2ccc(Br)cc2)c1 (centres undefined)
IC50 [8]: > 67.6 µM (inactive)
IC50 (HEK293): > 67.6 µM (inactive)

Oc1[nH]c2ccccc2c1N=Nc1cccc(Cl)c1
EC50 [1]: > 99 µM (inactive)
EC50 [2]: 125 µM (active)
EC50 [3]: > 99 µM (inactive)
EC50 [4]: 45.4 µM (active)
